In one assay the test system is human PBMC B cells. In words: cells. In kind it is cell-based. Particulars: Homo sapiens, 72 h, read-out: B-cells (IC50).
For another assay, the system named is human PBMC T cells. Nature of the assay: cells. Particulars: Homo sapiens, 72 h, read-out: T-cells (IC50). In kind it is cell-based.
For the next assay, the target named is IMPDH human type II (Homo sapiens, UniProt P12268). In words: biochemical.

The structures appear in SMILES notation. Read-outs that look alike come from different tables or passages of the source.

On to `COc1cc(NC(=O)Nc2cccc(CNC(=O)OC(CC#N)CN(C)C)c2)ccc1-c1cnco1` (stereo not drawn) [Compound 17], for which the IC50 with human PBMC B cells and in the assay with human PBMC T cells was above 1000 nM each time. On to `COc1cc(NC(=O)Nc2cccc(CNC(=O)O[C@H](CC#N)CN(C)C)c2)ccc1-c1cnco1` [Compound 17], for which, on IMPDH human type II (read-out: Ki), the Ki is below 10 nM. In the case of `COc1cc(NC(=O)Nc2cccc(CNC(=O)OC(CC#N)CN3CCCCC3)c2)ccc1-c1cnco1` (stereo not drawn) [Compound 21], the values for the IC50 in the assay with human PBMC B cells and in the assay on human PBMC T cells were above 1000 nM and 100 to 1000 nM, respectively. Turning to `COc1cc(NC(=O)Nc2cccc(CNC(=O)O[C@@H](CC#N)CN3CCCCC3)c2)ccc1-c1cnco1` [Compound 21], the Ki on IMPDH human type II (read-out: Ki) was below 10 nM. As to `COc1cc(NC(=O)Nc2cccc(CNC(=O)O[C@@H](CCl)CC#N)c2)ccc1-c1cnco1` [Compound 25], the Ki at IMPDH human type II (read-out: Ki) was below 10 nM.

As to `COc1cc(NC(=O)Nc2cccc(CNC(=O)OC(CCN(C)C(=O)OC(C)(C)C)c3ccccc3)c2)ccc1-c1cnco1` (stereo not drawn) [Compound 31], the Ki on IMPDH human type II (read-out: Ki) was in the range of 10 to 50 nM. With `COc1cc(NC(=O)Nc2cccc(CNC(=O)O[C@H](CCC#N)COCc3ccccc3)c2)ccc1-c1cnco1` [Compound 53], the Ki at IMPDH human type II (read-out: Ki) was below 10 nM.

Turning to `CC[C@H](COCc1ccccc1)OC(=O)NCc1cccc(NC(=O)Nc2ccc(-c3cnco3)c(OC)c2)c1` [Compound 54], at IMPDH human type II (read-out: Ki), the Ki was below 10 nM. For `COc1cc(NC(=O)Nc2cccc(CNC(=O)O[C@H](CC#N)COCc3ccccc3)c2)ccc1-c1cnco1` [Compound 55], the Ki at IMPDH human type II (read-out: Ki) was below 10 nM. In the case of `COc1cc(NC(=O)Nc2cccc(CNC(=O)OC(CCN3CCCC3)c3ccccc3)c2)ccc1-c1cnco1` (stereo not drawn) [Compound 56], in the assay on human PBMC B cells, the IC50 was in the range of 100 to 1000 nM. Besides, the Ki on IMPDH human type II (read-out: Ki) was below 10 nM. Take `COc1cc(NC(=O)Nc2cccc(CNC(=O)O[C@@H]3CC[C@H](OC(C)=O)C3)c2)ccc1-c1cnco1` [Compound 85]: on IMPDH human type II (read-out: Ki), the Ki is above 50 nM. For the compound `COc1cc(NC(=O)Nc2cccc(CNC(=O)O[C@@H]3CCC[C@H]3N3CCOCC3)c2)ccc1-c1cnco1` [Compound 86], at IMPDH human type II (read-out: Ki), the Ki is 10 to 50 nM. On the same count and under the same terms, the value for `CC[C@H](COC(=O)CNC(=O)OC(C)(C)C)OC(=O)NCc1cccc(NC(=O)Nc2ccc(-c3cnco3)c(OC)c2)c1` [Compound 93] was 10 to 50 nM; that for `CC[C@H](COC(C)=O)OC(=O)NCc1cccc(NC(=O)Nc2ccc(-c3cnco3)c(OC)c2)c1` [Compound 94] was below 10 nM; that for `CC[C@H](COC(=O)CN)OC(=O)NCc1cccc(NC(=O)Nc2ccc(-c3cnco3)c(OC)c2)c1` [Compound 95] was 10 to 50 nM. The same measure, in the same setting: the value for `CC[C@H](COP(=O)(O)O)OC(=O)NCc1cccc(NC(=O)Nc2ccc(-c3cnco3)c(OC)c2)c1` [Compound 96] was 10 to 50 nM.

For the compound `COc1cc(NC(=O)Nc2cccc(CNC(=O)O[C@H](CN3CCSCC3)c3ccccc3)c2)ccc1-c1cnco1` [Compound 105], the Ki on IMPDH human type II (read-out: Ki) is below 10 nM.

Take `COc1cc(NC(=O)Nc2cccc(CNC(=O)O[C@H](CN3CC[S+]([O-])CC3)c3ccccc3)c2)ccc1-c1cnco1` [Compound 106]: on IMPDH human type II (read-out: Ki), the Ki was above 50 nM.

Turning to `CCCN(CC)C[C@@H](OC(=O)NCc1cccc(NC(=O)Nc2ccc(-c3cnco3)c(OC)c2)c1)c1ccccc1` [Compound 111], the Ki at IMPDH human type II (read-out: Ki) is above 50 nM. Same read-out and setting: the value for `COc1cc(NC(=O)Nc2cccc(CNC(=O)OC(CCN(C)CC(C)C)c3ccccc3)c2)ccc1-c1cnco1` (stereo not drawn) [Compound 124] was above 50 nM; that for `CCN(CC1CC1)C[C@@H](OC(=O)NCc1cccc(NC(=O)Nc2ccc(-c3cnco3)c(OC)c2)c1)c1ccccc1` [Compound 134] was 10 to 50 nM; that for `CCN(CC(OC(=O)NCc1cccc(NC(=O)Nc2ccc(-c3cnco3)c(OC)c2)c1)c1ccccc1)C1CC1` (stereo not drawn) [Compound 135] was above 50 nM. `CCCN(CC(OC(=O)NCc1cccc(NC(=O)Nc2ccc(-c3cnco3)c(OC)c2)c1)c1ccccc1)C1CC1` (stereo not drawn) [Compound 136]: the Ki at IMPDH human type II (read-out: Ki) was above 50 nM. Regarding `COc1cc(NC(=O)Nc2cccc(CNC(=O)O[C@H](CN(CC3CC3)C3CC3)c3ccccc3)c2)ccc1-c1cnco1` [Compound 137], the Ki at IMPDH human type II (read-out: Ki) was above 50 nM. For the compound `CC[C@H](COS(N)(=O)=O)OC(=O)NCc1cccc(NC(=O)Nc2ccc(-c3cnco3)c(OC)c2)c1` [Compound 138], on IMPDH human type II (read-out: Ki), the Ki was below 10 nM. Take `CCN(C)CCC(OC(=O)NCc1cccc(NC(=O)Nc2ccc(-c3cnco3)c(OC)c2)c1)c1ccccc1` (stereo not drawn) [Compound 139]: the Ki on IMPDH human type II was above 50 nM.

In turn, `CCN(CC)CCC(OC(=O)NCc1cccc(NC(=O)Nc2ccc(-c3cnco3)c(OC)c2)c1)c1ccccc1` (stereo not drawn) [Compound 140] displayed a Ki on IMPDH human type II above 50 nM. Turning to `COc1cc(NC(=O)Nc2cccc(CNC(=O)O[C@H](CO)CCO)c2)ccc1-c1cnco1` [Compound 141], the Ki on IMPDH human type II (read-out: Ki) lay within 10 to 50 nM. Consider `CCN(CC)CC(OC(=O)NCc1cccc(NC(=O)Nc2ccc(-c3cnco3)c(OC)c2)c1)c1nccs1` (stereo not drawn) [Compound 142], for which the Ki at IMPDH human type II (read-out: Ki) is 10 to 50 nM. Regarding `CCN(CC)C[C@@H](OC(=O)NCc1cccc(NC(=O)Nc2ccc(-c3cnco3)c(OC)c2)c1)C1CCCCC1` [Compound 157], the Ki on IMPDH human type II (read-out: Ki) was 10 to 50 nM.

In the case of `CC[C@H](COC(N)=O)OC(=O)NCc1cccc(NC(=O)Nc2ccc(-c3cnco3)c(OC)c2)c1` [Compound 159], the Ki on IMPDH human type II (read-out: Ki) is below 10 nM. On the same count and under the same terms, the value for `CCC(CNC(=O)OC(C)(C)C)OC(=O)NCc1cccc(NC(=O)Nc2ccc(-c3cnco3)c(OC)c2)c1` (stereo not drawn) [Compound 160] was above 50 nM; that for `CCC(CN)OC(=O)NCc1cccc(NC(=O)Nc2ccc(-c3cnco3)c(OC)c2)c1` (stereo not drawn) [Compound 161] was below 10 nM.

For the compound `CC[C@H](CO)OC(=O)N[C@@H](C)c1cccc(NC(=O)Nc2ccc(-c3cnco3)c(OC)c2)c1` [Compound 164], the Ki on IMPDH human type II (read-out: Ki) lay in the range of 10 to 50 nM. `CC[C@H](CO)OC(=O)N[C@H](C)c1cccc(NC(=O)Nc2ccc(-c3cnco3)c(OC)c2)c1` [Compound 165]: the Ki at IMPDH human type II (read-out: Ki) was above 50 nM. `CCN(CC)C[C@@H](OC(=O)NC(C)c1cccc(NC(=O)Nc2ccc(-c3cnco3)c(OC)c2)c1)c1ccccc1` (stereo partly drawn) [Compound 167]: the Ki at IMPDH human type II (read-out: Ki) was above 50 nM. In turn, `CC[C@@H](CC#N)OC(=O)N[C@@H](C)c1cccc(NC(=O)Nc2ccc(C#N)c(OC)c2)c1` [Compound 168] showed a Ki on IMPDH human type II of 10 to 50 nM. As for `CC[C@H](CC#N)OC(=O)N[C@H](C)c1cccc(NC(=O)Nc2ccc(-c3cnco3)c(OC)c2)c1` [Compound 171], the Ki on IMPDH human type II (read-out: Ki) was above 50 nM. `CC[C@@H](CC#N)OC(=O)N[C@H](C)c1cccc(NC(=O)Nc2ccc(C#N)c(OC)c2)c1` [Compound 172]: the Ki on IMPDH human type II is above 50 nM. `CC[C@@H](CO)OC(=O)N[C@@H](C)c1cccc(NC(=O)Nc2ccc(C#N)c(OC)c2)c1` [Compound 176]: the Ki at IMPDH human type II (read-out: Ki) was above 50 nM. Turning to `CCC(NC(=O)O[C@@H](CC)CC#N)c1cccc(NC(=O)Nc2ccc(C#N)c(OC)c2)c1` (stereo partly drawn) [Compound 177], the Ki on IMPDH human type II (read-out: Ki) was above 50 nM. Regarding `CCC(NC(=O)O[C@H](CC)CC#N)c1cccc(NC(=O)Nc2ccc(C#N)c(OC)c2)c1` (stereo partly drawn) [Compound 178], at IMPDH human type II (read-out: Ki), the Ki was above 50 nM.

Compound `CC[C@H](CC#N)OC(=O)N[C@@H](C)c1cccc(NC(=O)Nc2ccc(C#N)c(Cl)c2)c1` [Compound 183] came in with an inhibitory constant (Ki) on IMPDH human type II of 10 to 50 nM. Regarding `COc1cc(NC(=O)Nc2cccc([C@H](C)NC(=O)O[C@@H]3CCOC3)c2)ccc1C#N` [Compound 184], the inhibitory constant (Ki) on IMPDH human type II (read-out: Ki) was in the range of 10 to 50 nM. As for `CCOc1cc(NC(=O)Nc2cccc([C@H](C)NC(=O)O[C@H]3CCOC3)c2)ccc1C#N` [Compound 186], the Ki on IMPDH human type II (read-out: Ki) is above 50 nM.

(Values after patent US7087642B2 (priority 1999, dated 2006).)
